# Measurements reported in patent US20160102058A1, “FLUORO-PERHEXILINE COMPOUNDS AND THEIR THERAPEUTIC USE” (THE UNIVERSITY COURT OF THE UNIVERSITY OF ABERDEEN, priority 2013, published 2016).
# Legend:
# [1] = cited from earlier work
# [2] = Human liver microsomal (HLM) stability assay; type: in vitro ADME
# Procedure: (§1) The metabolic stability of fluoroperhexiline derivatives was measured by determination of the rate of compound disappearance when incubated in the presence of both human and rat liver microsomes. Liver microsomes are prepared from the endoplasmic reticulum of hepatocytes and are the primary source of the most important enzymes (cytochrome P450) involved in drug metabolism. Study of drug stability in the presence of liver microsomes is accepted as a valuable model permitting rapid prediction of in vivo drug stability.
# (§2) Human and rat liver microsomes were obtained from a commercial source. Test compounds (3 μM) were incubated with pooled liver microsomes (male and female). Samples were incubated for a 45 minute period and removed at 5 time points and test compounds were analysed by LC-MS/MS.
# (§3) Microsomes (final protein concentration 0.5 mg/mL), 0.1 M phosphate buffer pH 7.4, and test compound (final concentration 3 μM; diluted from 10 mM stock solution to give a final DMSO concentration of 0.25%) were incubated at 37° C. prior to the addition of NADPH (final concentration 1 mM) to initiate the reaction. The final incubation volume was 25 μL. A control incubation was included for each compound tested, where 0.1 M phosphate buffer pH 7.4 was added instead of NADPH. The control compounds testosterone and 7-hydroxycoumarin were included in each experiment and all incubations were performed singularly for each compound.
# (§4) Each compound was incubated for 0, 5, 15, 30, and 45 minutes. The control (minus NADPH) was incubated for 45 minutes only. The reactions were stopped by the addition of 50 μL methanol containing internal standard at the appropriate time points. The incubation plates were centrifuged at 2500 rpm for 20 minutes at 4° C. to precipitate the protein.
# (§5) Following protein precipitation, the sample supernatants were combined in cassettes of up to 4 compounds and analysed using standard LC-MS/MS conditions.
# (§6) From a plot of the natural logarithm of the peak area ratio (i.e., the ratio of compound peak area:internal standard peak area) against time, the gradient of the line was determined. Subsequently, half-life and intrinsic clearance were calculated using the equations below:
# (§7) Eliminated Rate Constant (k)=(−Gradient).
# (§8) Half-Life (t1/2) (min)=0.063/k.
# (§9) Intrinsic Clearance (CLint) […]=(V×0.693)/t1/2. • wherein V=Incubation Volume (μL/mg microsomal protein).
# [3] = Rat liver microsomal (RLM) stability assay; type: in vitro ADME; details: both sexes, pH 7.4, rat liver microsomes, 3 μM test compound
# Procedure: as §1, §2, §3, §4, §5, §6, §7, §8, §9
# [4] = target: T1, CYP2D6 (Homo sapiens, UniProt P10635); experiment: Cytochrome P450 2D6 reaction phenotyping (Bactosomes); type: in vitro ADME
# T1 construct: purchased Cypex Ltd; host or cells: bacterial membranes (Bactosomes)
# T1 sequence (P10635 whole entry): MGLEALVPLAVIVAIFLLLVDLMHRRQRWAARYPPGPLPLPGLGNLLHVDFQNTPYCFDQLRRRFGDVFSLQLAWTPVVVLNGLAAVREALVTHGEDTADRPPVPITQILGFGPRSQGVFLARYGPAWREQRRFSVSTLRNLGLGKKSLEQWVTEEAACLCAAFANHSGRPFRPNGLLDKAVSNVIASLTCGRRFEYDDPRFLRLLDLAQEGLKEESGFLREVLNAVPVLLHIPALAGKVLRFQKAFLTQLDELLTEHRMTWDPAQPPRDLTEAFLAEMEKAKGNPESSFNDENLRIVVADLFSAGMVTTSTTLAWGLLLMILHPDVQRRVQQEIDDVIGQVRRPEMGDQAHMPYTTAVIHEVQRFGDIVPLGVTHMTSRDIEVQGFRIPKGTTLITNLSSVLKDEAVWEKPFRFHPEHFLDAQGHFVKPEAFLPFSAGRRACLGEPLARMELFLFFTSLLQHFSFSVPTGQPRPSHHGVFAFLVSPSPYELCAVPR
# Procedure: The stability of fluoroperhexiline derivatives towards CYP2D6-mediated metabolism was measured by determination of the rate of compound disappearance when incubated in the presence CYP2D6 recombinant isoform expression systems (Bactosomes™). The percentage of parent compound remaining at each time point (following correction for any loss in the incubations with the control bactosomes) is calculated. cDNA expressed human CYP450 enzyme preparations co-expressed with human NADPH cytochrome P450 reductase (Bactosomes™) are supplied by Cypex Ltd. Bactosomes™ are stored at −80° C. prior to use. […] Incubations are also performed using control bactosomes (no P450 enzymes present) to reveal any non-enzymatic degradation. The final incubation volume is 25 μL. A compound known to be metabolised specifically by CYP2D6 isoform is used as a control compound. Each compound is incubated singly for 0, 5, 15, 30 and 45 min with each isoform. The reactions are stopped by the addition of 50 μL methanol containing internal standard at the appropriate time points. The incubation plates are centrifuged at 2500 rpm for 20 min at 4° C. to precipitate the protein. Following protein precipitation, the sample supernatants are combined in cassettes of up to four compounds and analysed using Cyprotex generic LC-MS/MS conditions. The natural logarithm of the peak area ratio (which has been corrected for any loss in the incubations with the control bactosomes) is plotted against time and the gradient of the line determined. Elimination Rate Constant (k)=(−Gradient).
structure (smiles),measurement,setting,value
"O[C@H]1CC[C@@H](C(CC2CCCCN2)C2CCCCC2)CC1 (relative stereo) [cis-OH-perhexiline, cis-4-[1-(cyclohexyl)-2-(2-piperidinyl)ethyl]cyclohexanol]",plasma AUC of cis-OH-perhexiline after (−)-perhexiline compared with (+)-perhexiline,[1]; plasma,28 fold
"FC1(F)CCC(C(CC2CCCCN2)C2CCC(F)(F)CC2)CC1 (centres unmarked) [FPER-002, 2-(2,2-Bis(4,4-Difluorocyclohexyl)ethyl)piperidine]",microsomal CLint at 3 μM,"[2]; both sexes, pH 7.4, human liver microsomes, 3 μM test compound, read-out: CLint (μL/min/mg protein) HLM",0.3 µL/min/mg
same,half-life at 3 μM,"[2]; both sexes, pH 7.4, human liver microsomes, 3 μM test compound, read-out: T½ (min) HLM",4210 min
same,metabolic stability compared with perhexiline (in words),"[2]; human and rat liver microsomes, versus perhexiline",substantial increase in metabolic stability
same,microsomal CLint at 3 μM,[3]; read-out: CLint (μL/min/mg protein) RLM,0.8 µL/min/mg
same,half-life at 3 μM,[3]; read-out: T½ (min) RLM,1650 min
same,half-life at 5 μM,"[4]; human, pH 7.4, recombinant CYP2D6 Bactosomes, 5 μM test compound, read-out: T½",2.52 h
same,stability towards CYP2D6 compared with perhexiline (in words),[4]; versus perhexiline,substantial increase in stability towards CYP2D6
"C1CCC(C(CC2CCCCN2)C2CCCCC2)CC1 (single isomer, unassigned; (+)) [(+)-perhexiline]","ratio of systemic exposure of (+)- to (−)-perhexiline, extensive metabolisers",[1]; EM,1.5
same,"ratio of systemic exposure of (+)- to (−)-perhexiline, poor metabolisers",[1]; PM,2.3
same,"plasma AUC, (+)-perhexiline relative to (−)-perhexiline",[1]; plasma,2.5 fold
